Numbered stars: 1 amine (or outer) side, 2 acyl side, 3 side chain; on linkers, the order of the positions; unused ones are H or OH. Peptide text beside a SMILES is read from it. * marks the point of attachment. C20 diacid = O=C(O)CCCCCCCCCCCCCCCCCCC(=O)*; C18 diacid = O=C(O)CCCCCCCCCCCCCCCCC(=O)*; C16 diacid = O=C(O)CCCCCCCCCCCCCCC(=O)*; γGlu = O=C(O)[C@H](CCC(=O)[*:2])N[*:1]; Trx = NC[C@H]1CC[C@H](C(=O)O)CC1; AEEA = NCCOCCOCC(=O)O
Assays:
amylin receptor (hAMY3R) = target: T1, amylin receptor (hAMY3R) (Homo sapiens, UniProt O60896+P30988); experiment: Amylin receptor agonism testing, CRE-luciferase assay in stably transfected CHO-K1/Ga15/AMY3 cells; type: cell-based; conditions: relative to D1 as benchmark
T1 construct: host or cells: CHO-K1/Ga15/AMY3 cells, further stably transfected with a CRE-luciferase plasmid
T1 sequence (P30988 25-474): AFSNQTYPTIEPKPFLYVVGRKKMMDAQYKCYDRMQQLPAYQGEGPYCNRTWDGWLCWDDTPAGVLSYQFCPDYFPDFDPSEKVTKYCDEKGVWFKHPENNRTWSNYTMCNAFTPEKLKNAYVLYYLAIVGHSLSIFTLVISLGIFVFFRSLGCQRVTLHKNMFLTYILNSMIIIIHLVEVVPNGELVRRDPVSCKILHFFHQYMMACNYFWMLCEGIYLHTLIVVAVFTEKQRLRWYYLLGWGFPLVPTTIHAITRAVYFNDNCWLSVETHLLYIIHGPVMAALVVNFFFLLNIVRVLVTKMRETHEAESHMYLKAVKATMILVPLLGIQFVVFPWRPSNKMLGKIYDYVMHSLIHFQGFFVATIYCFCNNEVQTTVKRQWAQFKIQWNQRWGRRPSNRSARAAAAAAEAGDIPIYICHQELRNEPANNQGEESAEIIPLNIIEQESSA
T1 sequence (O60896 24-148): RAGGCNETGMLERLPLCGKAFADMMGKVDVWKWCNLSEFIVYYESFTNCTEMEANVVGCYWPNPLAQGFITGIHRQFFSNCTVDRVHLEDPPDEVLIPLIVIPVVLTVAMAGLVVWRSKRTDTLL
Source text: The objective of this assay is to test the potency of the polypeptide derivatives in the present application on amylin and calcitonin receptors in vitro using a luciferase assay.
Using the standard protocol for construction of an amylin receptor/CRE-luc cell line, CHO-K1/Ga15/AMY3 cells (purchased from GenScript, with the calcitonin receptor and the receptor activity modifying peptide (RAMP) constructed already) were transfected with a plasmid containing a luciferase expression cassette driven by multiple copies of cAMP response elements (CREs). The cells were cultured in an F12 medium containing 200 ug/mL Zeocin, 2 ug/mL puromycin, 100 ug/mL hygromycin, and 400 ug/mL G418 to afford a stably transfected amylin receptor/CRE-luc cell line.
To each well of a white 96-well plate was added 50 μL of the tested sample solution at a respective concentration.
The stably transfected amylin receptor/CRE-luc CHO cells were resuspended in the growth medium at a certain density, and 50 μL of the cell suspension was added at a density of about 20,000 cells per well to the white 96-well plate containing the tested sample solution. After incubation of 24 hours at 37° C. and 5% CO2, 100 μL of a Luciferase substrate was added to each well, incubated for 3 minutes, and finally was tested for luminescence on SpectraMax L (Molecular Devices) with the software SoftMax Pro 7.0.3 GxP. A standard curve was plotted using the fluorescent intensities for calculation of EC50.

[1] = target: T2, calcitonin receptor (hCTR) (Homo sapiens, UniProt P30988); experiment: Calcitonin receptor agonism, CRE-luciferase assay in stably transfected CHO-K1/CALCR/Ga15 cells; type: cell-based; conditions: for Fold change in activity against hCTR: relative to D1 as benchmark; for EC50: incubation of 24 hours, Table 4, read-out: EC50, activity against the calcitonin receptor in cells
T2 construct: host or cells: CHO-K1/CALCR/Ga15 cells, further stably transfected with a CRE-luciferase plasmid
T2 sequence (P30988 25-474): T1 sequence (P30988 25-474)

[2] = Heat accelerated stability assay of polypeptide solutions (40° C., pH about 7.4), reversed phase chromatography; type: physicochemical; conditions: 40° C.; for Concentration change on 7 d / Concentration change on 26 d: pH about 7.4, 1 mg/mL; for Concentration change on 7 d / Purity change on 7 d: Day 7; for Concentration change on 26 d / Purity change on 26 d: Day 26; for Purity change on 7 d / Purity change on 26 d: reversed phase chromatography 214 nm; for Purity change on 7 d: purity on 7 d − purity on 0 d; for Purity change on 26 d: purity on 26 d − purity on 0 d
Procedure: A stability test chamber (BINDER GmbH), a 0.01 mg-readability balance (METTLER TOLEDO), a pH meter (METTLER TOLEDO), a biosafety cabinet (ESCO), T2G-II small-sized motor-driven capping machine (Changsha zhongya pharmaceutical equipment co. LTD), a high-speed refrigerated centrifuge (Eppendorf), a sterilizer cabinet (Shinva Medical), Agilent 1260 high-performance liquid chromatographer, and Sepax Bio-C18 4.6*250 mm 3 μm 200 Å reversed phase column were used.
Reagents and consumables included: ultrapure water (18.2 MΩ, self-made), acetonitrile (HPLC grade), trifluoroacetic acid (HPLC grade), sodium dihydrogen phosphate (pharmaceutical grade, Hunan Jiudian Hongyang Pharmaceutical Co., Ltd), hydrochloric acid (pharmaceutical grade, Hunan Er-Kang Pharmaceutical Co., Ltd), sodium hydroxide (Analytical Reagent grade, Hushi®, Sinopharm Chemical Reagent Co., Ltd), vials, rubber stoppers, disposable syringes, and sterile filters.
The lyophilized powder (1 mg/mL) of the polypeptide derivative prepared in accordance with the method of Example 1 was mixed with sodium dihydrogen phosphate (1.42 mg/mL) and dissolved in ultrapure water in the indicated mass-volume ratios. After adjusting pH to about 7.4 with hydrochloric acid/sodium hydroxide, the solution was filtered into a sterilized vial in a clean bench using a 0.22 μm sterile filter. The vial was then capped and placed into the stability test chamber at 40° C. Detections were made on Days 7 (7d) and 26 (26d), and during the assay, changes in the characteristics and properties of the polypeptide were observed and recorded. The sample was then centrifuged for 3 min at 10,000 rpm at 4° C., and the supernatant was transferred to a liquid phase sample vial for detecting the concentration and purity of the polypeptides using liquid phase chromatography described as below, wherein the concentration of the polypeptide=peak area/injection volume/extinction coefficient/60×flow rate, and the purity of the polypeptide=target peak area/total peak area×100%.
Conditions of the reversed phase chromatography Flow rate: 1.0 ml/min; Autosampler temperature: 15° C.; Column temperature: 25° C.; Detection wavelengths: 280 nm and 214 nm; Mobile phase A: 100% H2O+0.05% TFA; Mobile phase B: 100% ACN; and Gradient of elution listed in Table 6: […]

Fold change in activity against hAMY3R (amylin receptor (hAMY3R))	Fold change in activity against hCTR [1]	Concentration change on 7 d [2]	Concentration change on 26 d [2] [%]	Purity change on 7 d [2]	Purity change on 26 d [2] [%]	EC50 [1] [nM]	Compound
0.079	0.147	−3.464%	−8.377	No change	−1.77	–	CC(C)C[C@H](NC(=O)[C@H](CCCNC(=N)N)NC(=O)CNC(=O)[C@H](CC(C)C)NC(=O)[C@@H](NC(=O)[C@H](C)NC(=O)[C@@H](NC(=O)[C@H](CO)NC(=O)[C@H](CC(C)C)NC(=O)[C@H](CCC(N)=O)NC(=O)[C@H](CO)NC(=O)[C@H](C)NC(=O)[C@H]1CC[C@H](CNC(=O)CCCCCCCCCCCCCCCCCCC(=O)O)CC1)[C@@H](C)O)C(C)C)C(=O)N[C@@H](CO)C(=O)N[C@@H](CC(=O)O)C(=O)N[C@@H](CCC(=O)O)C(=O)N[C@@H](CC(C)C)C(=O)N[C@@H](Cc1c[nH]cn1)C(=O)N[C@@H](CCCNC(=N)N)C(=O)N[C@@H](CC(C)C)C(=O)N[C@@H](CCC(N)=O)C(=O)N[C@@H](CC(=O)O)C(=O)N[C@@H](Cc1ccc(O)cc1)C(=O)N1CCC[C@H]1C(=O)N[C@@H](CCCNC(=N)N)C(=O)N[C@H](C(=O)N[C@@H](CC(=O)O)C(=O)N[C@H](C(=O)NCC(=O)N[C@@H](CO)C(=O)NCC(=O)N[C@@H](CO)C(=O)N1CCC[C@H]1C(N)=O)C(C)C)[C@@H](C)O [M14] ({C20 diacid-Trx}-ASQLSTAVLGRLSDELHRLQDYPRTDVGSGSP-NH2)
–	–	−1.895%	−5.520	−1.15%	−3.76	0.085	CC(C)C[C@H](NC(=O)[C@H](CCCNC(=N)N)NC(=O)CNC(=O)[C@H](CC(C)C)NC(=O)[C@@H](NC(=O)[C@H](C)NC(=O)[C@@H](NC(=O)[C@H](CO)NC(=O)[C@H](CC(C)C)NC(=O)[C@H](CCC(N)=O)NC(=O)[C@H](CO)NC(=O)[C@H](C)NC(=O)[C@H](CC(=O)O)NC(=O)CCCCCCCCCCCCCCCCC(=O)O)[C@@H](C)O)C(C)C)C(=O)N[C@@H](CO)C(=O)N[C@@H](CC(=O)O)C(=O)N[C@@H](CCC(=O)O)C(=O)N[C@@H](CC(C)C)C(=O)N[C@@H](Cc1c[nH]cn1)C(=O)N[C@@H](CCCNC(=N)N)C(=O)N[C@@H](CC(C)C)C(=O)N[C@@H](CCC(N)=O)C(=O)N[C@@H](CC(=O)O)C(=O)N[C@@H](Cc1ccc(O)cc1)C(=O)N1CCC[C@H]1C(=O)N[C@@H](CCCNC(=N)N)C(=O)N[C@H](C(=O)N[C@@H](CC(=O)O)C(=O)N[C@H](C(=O)NCC(=O)N[C@@H](CO)C(=O)NCC(=O)N[C@@H](CO)C(=O)N1CCC[C@H]1C(N)=O)C(C)C)[C@@H](C)O [M13] ({C18 diacid}-DASQLSTAVLGRLSDELHRLQDYPRTDVGSGSP-NH2)
–	–	−2.280%	−7.796	−1.67%	−4.82	0.12	CC(C)C[C@H](NC(=O)[C@H](CCCNC(=N)N)NC(=O)CNC(=O)[C@H](CC(C)C)NC(=O)[C@@H](NC(=O)[C@H](C)NC(=O)[C@@H](NC(=O)[C@H](CO)NC(=O)[C@H](CC(C)C)NC(=O)[C@H](CCC(N)=O)NC(=O)[C@H](CO)NC(=O)[C@H](C)NC(=O)CC[C@H](NC(=O)CCCCCCCCCCCCCCC(=O)O)C(=O)O)[C@@H](C)O)C(C)C)C(=O)N[C@@H](CO)C(=O)N[C@@H](CC(=O)O)C(=O)N[C@@H](CCC(=O)O)C(=O)N[C@@H](CC(C)C)C(=O)N[C@@H](Cc1c[nH]cn1)C(=O)N[C@@H](CCCNC(=N)N)C(=O)N[C@@H](CC(C)C)C(=O)N[C@@H](CCC(N)=O)C(=O)N[C@@H](CC(=O)O)C(=O)N[C@@H](Cc1ccc(O)cc1)C(=O)N1CCC[C@H]1C(=O)N[C@@H](CCCNC(=N)N)C(=O)N[C@H](C(=O)N[C@@H](CC(=O)O)C(=O)N[C@H](C(=O)NCC(=O)N[C@@H](CO)C(=O)NCC(=O)N[C@@H](CO)C(=O)N1CCC[C@H]1C(N)=O)C(C)C)[C@@H](C)O [M9] ({C16 diacid-γGlu}-ASQLSTAVLGRLSDELHRLQDYPRTDVGSGSP-NH2)
18.000	0.966	–	–	–	–	–	CC(C)C[C@H](NC(=O)[C@H](CCCNC(=N)N)NC(=O)CNC(=O)[C@H](CC(C)C)NC(=O)[C@@H](NC(=O)[C@H](C)NC(=O)[C@@H](NC(=O)[C@H](CO)NC(=O)[C@H](CC(C)C)NC(=O)[C@H](CCC(N)=O)NC(=O)[C@H](CO)NC(=O)[C@H](C)NC(=O)COCCOCCNC(=O)COCCOCCNC(=O)[C@H]1CC[C@H](CNC(=O)CCCCCCCCCCCCCCCCC(=O)O)CC1)[C@@H](C)O)C(C)C)C(=O)N[C@@H](CO)C(=O)N[C@@H](CC(=O)O)C(=O)N[C@@H](CCC(=O)O)C(=O)N[C@@H](CC(C)C)C(=O)N[C@@H](Cc1c[nH]cn1)C(=O)N[C@@H](CCCNC(=N)N)C(=O)N[C@@H](CC(C)C)C(=O)N[C@@H](CCC(N)=O)C(=O)N[C@@H](CC(=O)O)C(=O)N[C@@H](Cc1ccc(O)cc1)C(=O)N1CCC[C@H]1C(=O)N[C@@H](CCCNC(=N)N)C(=O)N[C@H](C(=O)N[C@@H](CC(=O)O)C(=O)N[C@H](C(=O)NCC(=O)N[C@@H](CO)C(=O)NCC(=O)N[C@@H](CO)C(=O)N1CCC[C@H]1C(N)=O)C(C)C)[C@@H](C)O [M28] ({C18 diacid-Trx-AEEA-AEEA}-ASQLSTAVLGRLSDELHRLQDYPRTDVGSGSP-NH2)

Compound	Fold change in activity against hAMY3R (amylin receptor (hAMY3R))	Fold change in activity against hCTR [1]	Concentration change on 7 d [2]	Concentration change on 26 d [2] [%]	Purity change on 7 d [2]	Purity change on 26 d [2] [%]	EC50 [1] [nM]
CC(C)C[C@H](NC(=O)[C@H](CCCNC(=N)N)NC(=O)CNC(=O)[C@H](CC(C)C)NC(=O)[C@@H](NC(=O)[C@H](C)NC(=O)[C@@H](NC(=O)[C@H](CO)NC(=O)[C@H](CC(C)C)NC(=O)[C@H](CCC(N)=O)NC(=O)[C@H](CO)NC(=O)[C@H](C)NC(=O)CC[C@H](NC(=O)CCCCCCCCCCCCCCCCC(=O)O)C(=O)O)[C@@H](C)O)C(C)C)C(=O)N[C@@H](CO)C(=O)N[C@@H](CC(=O)O)C(=O)N[C@@H](CCC(=O)O)C(=O)N[C@@H](CC(C)C)C(=O)N[C@@H](Cc1c[nH]cn1)C(=O)N[C@@H](CCCNC(=N)N)C(=O)N[C@@H](CC(C)C)C(=O)N[C@@H](CCC(N)=O)C(=O)N[C@@H](CC(=O)O)C(=O)N[C@@H](Cc1ccc(O)cc1)C(=O)N1CCC[C@H]1C(=O)N[C@@H](CCCNC(=N)N)C(=O)N[C@H](C(=O)N[C@@H](CC(=O)O)C(=O)N[C@H](C(=O)NCC(=O)N[C@@H](CO)C(=O)NCC(=O)N[C@@H](CO)C(=O)N1CCC[C@H]1C(N)=O)C(C)C)[C@@H](C)O [M8] ({C18 diacid-γGlu}-ASQLSTAVLGRLSDELHRLQDYPRTDVGSGSP-NH2)	–	–	No change (concentration change of less than 1% (denoted as “no change”))	−6.190	No change	−3.3	0.165
